Measured values published in patent publication EP3290412A1, “HIV-1 NUCLEOCAPSID INHIBITORS” (Università degli Studi di Siena, priority 2016, dated 2018).
Like-named read-outs stand apart in the source and are kept apart here.

Experiments:
[1] = biological target: T1, full length (1-55) HIV-1 NCp7 (Human immunodeficiency virus type 1 group M subtype B, UniProt P12493); experiment: Electromobility Shift Assay (EMSA), competition for ssDNA binding; details: NCp7 300 nM, M13mp18 ssDNA; positive = >25% inhibition at 100µM
T1 construct: recombinant full length (1-55) HIV-1 NCp7 proteins; made in house
Excerpt: The assay used a recombinant full length (1-55) HIV-1 NCp7 proteins based on the NL4-3 sequence (GenBank accession number AF324493). The protein was expressed and purified as described in [Carteau, S., Gorelick, R. J. & Bushman, F. D. Coupled integration of human immunodeficiency virus type 1 cDNA ends by purified integrase in vitro: stimulation by the viral nucleocapsid protein. Journal of virology 73, 6670-6679 (1999)].
Competition for single-stranded (ss) DNA binding was realized by mixing 1 µL of serial dilutions of NC inhibitors (diluted in DMSO) with 44 µL of NCp7 (300 nM) in a reaction buffer (20 mM Tris-HCl pH 7.4, 2 mM MgCl2, 100 mM NaCl, 1 mM DTT). 5 µL of a 10 ng/µL (4 nM) solution of M13mp18 ssDNA (BayouBiolabs) were then added and the tubes were incubated for 25 minutes at 37 °C. The reaction was terminated by chilling the tubes on ice followed by the addition of 5 µL of a loading buffer (30% glycerol, 0.01% xylene cyanol, 10 mM Tris-HCl pH 7.4). Samples were then resolved on 25 cm-long, 1% (w/v) agarose gels (SeaKem LE Agarose, Lonza) in 0.5x TBE. Gels were run in a Sub-Cell GT cuvette (BioRad) for 18 h at room temperature at 3 V/cm, stained with SybrGold (Molecular Probes) and scanned for fluorescence using a Typhoon 8600 (GE Healthcare). The experiments were performed in triplicate. Competition efficiency was realized by measuring the relative distance in pixels between the unbound ssDNA control, the NCp7-bound ssDNA control and the bound ssDNA for each points of the titration with the ImageQuant software. The IC50 was estimated as the NC inhibitors concentrations for which the bound ssDNA migrated at 50% of the distance separating the bound from the unbound ssDNA.

NC(11-55) = NC(11-55) (Human immunodeficiency virus type 1, UniProt P12493); experiment: NC inhibition assay (NC-induced cTAR DNA destabilization, fluorescence); format: biochemical, HIV-1; details: for inhibition at 100 µM: single point screening, positive = >25% inhibition at 100µM
Excerpt: The NC inhibition assay is based on the nucleic acid chaperone activity of the NC protein. NC destabilizes the secondary structure of cTAR DNA, the complementary sequence of the transactivation response element, which is involved in minus-strand DNA transfer during reverse transcription. In the assay, the cTAR sequence from the HIV-1 Mal strain (Bernacchi et al, J Mol Biol, 2002) is labeled with a dye (Alexa488 fluorophore) and a quencher 4-(4'-dimethylaminophenylazo)benzoic acid (Dabcyl) at its 5' and 3' ends, respectively. In the absence of destabilization, the close proximity of both cTAR ends results in a strong fluorescence quenching of the dye emission by the Dabcyl group. NC(11-55) added to cTAR at a ratio of 10 NC/cTAR melts the bottom of the cTAR stem, which increases the distance between the dye and the quencher and as a result increases the dye fluorescence signal [Shvadchak et al, (2009) Identification by high throughput screening of small compounds inhibiting the nucleic acid destabilization activity of the HIV-1 nucleocapsid protein. Biochimie, 916-923]. NCIs are expected to prevent the NC-induced destabilization of cTAR and thus reverse the NC-induced increase in the fluorescence of the labeled cTAR. The activity of the inhibitor is thus evaluated from the ratio of the fluorescence intensity observed in the presence of NC with the molecule to the one in the absence of the compound.
The doubly labelled cTAR DNA oligonucleotides (55nt) were synthesised and purified by IBA GmbH Nucleic Acids Product Supply (Göttingen, Germany). Extinction coefficient at 260 nm of 5.73 x 10^5 M^-1 cm^-1 was used to determine the concentration of cTAR.
The NC(11-55) peptide (Avilov et al, Antimicrob Agents Chemother, 2012) was synthesized by solid-phase peptide synthesis on a 433A synthesizer (ABI, Foster City, CA) as previously described [De Rocquigny H, (1991) First large scale chemical synthesis of the 72 amino acid HIV-1 nucleocapsid protein NCp7 in an active form. Biochem Biophys Res Commun., 1010-1018]. The peptide was stored lyophilized and was resuspended in water before use. The concentration of peptide was determined by using an extinction coefficient of 5.7 x 10^3 M^-1 cm^-1 at 280 nm. Next, 2.5 molar equivalents of ZnSO4 were added and pH was raised to its final value by adding buffer.
All experiments were performed at 20 °C in 25 mM Tris-HCl (pH 7.5), 30 mM NaCl, and 0.2 mM MgCl2. To evaluate the inhibition activity of compounds on NC-induced cTAR destabilization, cTAR DNA (0.1 µM) was preincubated with 1 µM NC(11-55) (molar ratio NC:cTAR = 10:1) for 15 min at room temperature before addition of compound. For single point screening, all compounds were tested at three final concentrations: 1 µM, 10 µM and 100 µM. For the IC50 determination, inhibition of NC-induced cTAR melting was monitored through addition of increasing concentrations of the selected molecules to the pre-formed NC(11-55)-cTAR complex. After the addition of compound, the mixture was incubated for 15 min at room temperature before the reading. The fluorescence signal was recorded with a plate reader Xenius (SAFAS Monaco) or Fluoromax 3 spectrofluorometer (Horiba Jobin-Yvon), and the excitation and emission wavelengths were 480 and 520 nm, respectively. The spectra were corrected for dilution, buffer fluorescence and screening effect (when it was required). In order to check the occurrence of aggregation, we performed additional reading of absorption with the plate reader Xenius (SAFAS Monaco) or Cary 4000 spectrophotometer (Agilent). […]

[2] = tested on: HIV-1 reference strain NL4-3; experiment: BiCycle assay (MT-2 then TZM-bl cells); format: cell-based; details: Human immunodeficiency virus 1, NL43, TZM-bl, read-out: BiCycle IC50 nM
Method: BiCycle Assay is cell based assay allowing the evaluation of the antiviral activity of HIV-1 inhibitors on the whole replication cycle of HIV-1. The assay consists in a first round of infection of the T-cell line MT-2 followed by infection of TZM-bl cells. MT-2 cells were seeded at a concentration of 50,000 cells/well in a 96-well plate and infected with the HIV-1 reference strain NL4-3 in presence of five-fold dilutions of the investigational compounds. After 72 hours, 50 µl of supernatant from each well, containing the virus produced in the first round of infection, were used to infect TZM-bl cells seeded in a 96-plate well at a concentration of 30,000 cells/well. Two days later, cells were lysed adding 40 µl of Glo Lysis Buffer (Promega) to each well for 5 minutes, then 40 µl of Brighy-Glo Luciferase Reagent (Promega) were added to each well for relative luminescence units (RLU) counting using Glo-Max Multi Detection System (Promega). RLU values from each well were elaborated using the GraphPad v5.0 software to calculate the IC50 of each compound.

HeLa cells = experiment: HeLa Proliferation assay (CellTiter Glo); format: cell-based; details: 72 hours
Method: HeLa cells (ATCC® CCL2™) in DMEM (Dulbecco Modified Eagle's Medium) without phenol red, Thermo, 11880, USA + 10% FBS + 1X PenStrep + 1X Gln or HUVEC cells (ATCC® CRL1730™) in EBM-2 (Endothelial Growth Basal Medium, Lonza, CC3156) + EGM-2 SingleQuotsTMSupplements and Growth Factors (Lonza, CC4176) + 1X Penicyllin-Streptomycin (PenStrep, ThermoFisher) + 1X Glutamine, are plated in a 384 well plate (Thermo, 4334-11, USA) to a density of 2000 cells per well and let recover for four hours at 37 °C, 5% CO2 in a humidified atmosphere. After the recovery, compounds are transferred to assay plates as per compound preparation method. Assay plates are then incubated at 37 °C, 5% CO2 in a humidified atmosphere for 72 hours. Cell viability is measured by the CellTiter Glo (Promega, G8080, USA) as per manufacturer instruction.

[3] = tested on: Peripheral blood mononuclear cells (PBMC); format: cell-based; details: human, 7 days
Method: Peripheral blood mononuclear cells (PBMC) obtained from healthy donors by separation over Ficoll-Hypaque (GEHealthear-Cat.# GEH17-1440-02) were suspended at 2x10^6 cells/mL in RPMI 1640 (Biowest-Cat.#L0501-500) supplemented with 10% of heat-inactivated sterile fetal bovine serum (Gibco-Cat.#10270-106), 2 mmol/l L-glutamine (Biowest-Cat.#X0550-100), 50 U/mL Penicillin-50 µg/mL Streptomycin (Biowest-Cat.#L0022-100), referred to as complete medium (CM). PBMC were supplemented with 5 µg/mL of phytohaemagglutinin (Sigma Aldr-Cat.#L1668) and cultured in 75 cm^2 flasks (Sarsted-Cat.#833.911.002) for 2 days at 37 °C in a humidified atmosphere with 5% CO2.
PBMC were then washed in CM, counted by trypan blue exclusion (Gibco-Cat. #15250-061), centrifuged and suspended in fresh CM supplemented with 20 IU/mL recombinant human IL-2 (Miltenyi Biotec-Cat.#130-097-748) and seeded in a 96-well-tissue culture plate (Sarsted-Ca#831.837) at the density of 5x10^5 cells/mL (or 1x10^5 cells in 200 µL final CM volume per well). Cells were left untreated (negative control) or treated with different concentrations of the compounds.
After 7 days of incubation cytotoxicity was determined using Promega's CellTiter 96(R) AQueous One Solution Cell Proliferation Assay (MTS assay) (Promega-Cat.#G3581) according to the manufacturer's instuctions. This is a colorimetric method for determining the number of viable cells in proliferation or cytotoxicity assays. The MTS tetrazolium compound is bioreduced by cells into a colored formazan product that is soluble in tissue culture medium. This conversion is presumably accomplished by NADPH or NADH produced by dehydrogenase enzymes in metabolically active cells.
Briefly, MTS solution was thawed at room temperature, or in a water bath at 37 °C and 40 µL of MTS solution was pipeted into each well of the 96-well assay plate containing the samples in 200 µL of culture medium and incubated at 37 °C, 5% CO2 for 4 hours. The optical density was read at 490 nm using a 96-well plate reader (Tecan Infinite F50) and TD50 (toxic dose 50%, dose killing 50% of the cells compared to untreated control) value was calculated by interpolation of the curve obtained by plotting dose against percent mortality and by using "Magellan data analysis software". CM alone plus MTS solution was used as a blank, and cell culture well without compound was used as a cellular control.

[4] = cTAR DNA 0.1 µM, 1 µM NC(11-55), 20 °C, pH 7.5, read-out: NC inhibition IC50

SMILES: C[C@@H](NC(=O)c1nc(-c2cc([N+](=O)[O-])ccn2)nc(O)c1O)C1CCCCC1 [Compound 40, (R)-N-(1-cyclohexylethyl)-5,6-dihydroxy-2-(4-nitropyridin-2-yl)pyrimidine-4-carboxamide]
- EMSA screening results [1]: Positive (A compound showing >25% inhibition when tested at 100µM concentration is considered as "positive")
- IC50 (NC(11-55); [4]): 6.35 µM
- inhibition at 100 µM (NC(11-55)): > 25%

SMILES: C[C@@H](NC(=O)c1nc(-c2ncccc2NC(=O)OC(C)(C)C)nc(O)c1O)C1CCCCC1 [Compound 42, tert-butyl (R)-(2-(4-((1-cyclohexylethyl)carbamoyl)-5,6-dihydroxypyrimidin-2-yl)pyridin-3-yl)carbamate]
- EMSA screening results [1]: Positive (A compound showing >25% inhibition when tested at 100µM concentration is considered as "positive")
- IC50 [2]: 1600 nM
- IC50 (NC(11-55); [4]): 14.5 µM
- inhibition at 100 µM (NC(11-55)): > 25%

SMILES: C[C@@H](NC(=O)c1nc(-c2ccc(NC(=O)c3cnco3)cn2)nc(O)c1O)C1CCCCC1 [Compound 82, (R)-N-(6-(4-((1-cyclohexylethyl)carbamoyl)-5,6-dihydroxypyrimidin-2-yl)pyridin-3-yl)oxazole-5-carboxamide]
- Proliferation assay HELA TD50 (HeLa cells): 6.5308 µM
- EMSA screening results [1]: Positive (A compound showing >25% inhibition when tested at 100µM concentration is considered as "positive")
- IC50 (NC(11-55); [4]): 19.5 µM
- inhibition at 100 µM (NC(11-55)): > 25%

SMILES: O=C(NC1(C2CCCCC2)CC1)c1nc(-c2cc3ccccc3cn2)nc(O)c1O [Compound 83, N-(1-cyclohexylcyclopropyl)-5,6-dihydroxy-2-(isoquinolin-3-yl)pyrimidine-4-carboxamide]
- EMSA screening results [1]: Positive (A compound showing >25% inhibition when tested at 100µM concentration is considered as "positive")
- inhibition at 100 µM (NC(11-55)): > 25%

SMILES: C[C@@H](NC(=O)c1nc(-c2ccc(N3CCN(C)CC3)cn2)nc(O)c1O)C1CCCCC1 [Compound 94, (R)-N-(1-cyclohexylethyl)-5,6-dihydroxy-2-(5-(4-methylpiperazin-1-yl)pyridin-2-yl)pyrimidine-4-carboxamide]
- Proliferation assay PBMC TD50 [3]: 740 nM
- EMSA screening results [1]: Negative
- IC50 (NC(11-55)): 18 µM
- inhibition at 100 µM (NC(11-55)): > 25%

SMILES: CCNCc1ccnc(-c2nc(O)c(O)c(C(=O)N[C@H](C)C3CCCCC3)n2)c1 [Compound 95, (R)-N-(1-cyclohexylethyl)-2-(4-((ethylamino)methyl)pyridin-2-yl)-5,6-dihydroxypyrimidine-4-carboxamide]
- EMSA screening results [1]: Negative
- IC50 (NC(11-55); [4]): 28 µM
- inhibition at 100 µM (NC(11-55)): > 25%

SMILES: C[C@@H](NC(=O)c1nc(-c2cc(CNCc3ccccc3)ccn2)nc(O)c1O)C1CCCCC1 [Compound 96, (R)-2-(4-((benzylamino)methyl)pyridin-2-yl)-N (1-cyclohexylethyl)-5,6-dihydroxypyrimidine-4-carboxamide]
- EMSA screening results [1]: Negative
- inhibition at 100 µM (NC(11-55)): > 25%
